From PubChem BioAssay (NCI)
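Step 1: Grow cells in 96-well plates. Step 2: Expose to compound for 48 hours at 5 concentrations. Step 3: Interpolate endpoints linearly; if unreached, use highest concentration. Definition used: TGI = concentration required for complete inhibition of growth.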

Experiments:
Assay in all cases: NCI tumour cell line growth inhibition, 48 h
786-0 renal = test system: 786-0 renal
A498 renal = test system: A498 renal
A549 NSCLC = test system: A549 NSCLC
ACHN renal = test system: ACHN renal
CAKI-1 renal = test system: CAKI-1 renal
CCRF-CEM leukemia = test system: CCRF-CEM leukemia
COLO 205 colon = test system: COLO 205 colon
DLD-1 colon = test system: DLD-1 colon
DMS 114 small cell lung = test system: DMS 114 small cell lung
DMS 273 small cell lung = test system: DMS 273 small cell lung
EKVX NSCLC = test system: EKVX NSCLC
HCT-116 colon = test system: HCT-116 colon
HCT-15 colon = test system: HCT-15 colon
HL-60(TB) leukemia = test system: HL-60(TB) leukemia
HOP-18 NSCLC = test system: HOP-18 NSCLC
HOP-62 NSCLC = test system: HOP-62 NSCLC
HT29 colon = test system: HT29 colon
IGROV1 ovarian = test system: IGROV1 ovarian
K-562 leukemia = test system: K-562 leukemia
KM12 colon = test system: KM12 colon
KM20L2 colon = test system: KM20L2 colon
LOX IMVI melanoma = test system: LOX IMVI melanoma
LXFL 529 NSCLC = test system: LXFL 529 NSCLC
M14 melanoma = test system: M14 melanoma
MALME-3M melanoma = test system: MALME-3M melanoma
MOLT-4 leukemia = test system: MOLT-4 leukemia
NCI-H226 lung = test system: NCI-H226 lung
NCI-H23 lung = test system: NCI-H23 lung
NCI-H460 lung = test system: NCI-H460 lung
NCI-H522 lung = test system: NCI-H522 lung
OVCAR-3 ovarian = test system: OVCAR-3 ovarian
OVCAR-4 ovarian = test system: OVCAR-4 ovarian
OVCAR-5 ovarian = test system: OVCAR-5 ovarian
OVCAR-8 ovarian = test system: OVCAR-8 ovarian
RPMI-8226 leukemia = test system: RPMI-8226 leukemia
RXF 393 renal = test system: RXF 393 renal
RXF-631 renal = test system: RXF-631 renal
SF-268 CNS = test system: SF-268 CNS
SF-295 CNS = test system: SF-295 CNS
SF-539 CNS = test system: SF-539 CNS
SK-MEL-2 melanoma = test system: SK-MEL-2 melanoma
SK-MEL-28 melanoma = test system: SK-MEL-28 melanoma
SK-MEL-5 melanoma = test system: SK-MEL-5 melanoma
SK-OV-3 ovarian = test system: SK-OV-3 ovarian
SN12C renal = test system: SN12C renal
SNB-19 CNS = test system: SNB-19 CNS
SNB-75 CNS = test system: SNB-75 CNS
SNB-78 CNS = test system: SNB-78 CNS
SR leukemia = test system: SR leukemia
SW-620 colon = test system: SW-620 colon
TK-10 renal = test system: TK-10 renal
U251 CNS = test system: U251 CNS
UACC-257 melanoma = test system: UACC-257 melanoma
UACC-62 melanoma = test system: UACC-62 melanoma
XF 498 CNS = test system: XF 498 CNS
HCC-2998 colon = test system: HCC-2998 colon
HOP-92 NSCLC = test system: HOP-92 NSCLC
M19-MEL melanoma = test system: M19-MEL melanoma
UO-31 renal = test system: UO-31 renal

Measured: TGI

COc1ccccc1NC(=O)C1=C(C)NC(C)=C(C(=O)Nc2ccccc2OC)C1c1ccc([N+](=O)[O-])cc1
90.8 µM: OVCAR-5 ovarian
55.9 µM: SF-295 CNS
33.7 µM: XF 498 CNS
not listed: HCC-2998 colon | HOP-92 NSCLC | M19-MEL melanoma | UO-31 renal
> 100 µM: all other assays above

CCOC(=O)C1N(S(=O)(=O)c2ccc(C)cc2)CCC12C(c1ccc(OC)cc1)NC1CCCCC12 (centres undefined)
77.8 µM: SNB-75 CNS
80.9 µM: HOP-92 NSCLC
not listed: HOP-18 NSCLC | MOLT-4 leukemia | SK-MEL-2 melanoma | SR leukemia | XF 498 CNS
> 100 µM: all other assays above
